In patent US10723764B2, “Anti-microbial peptides and methods of use thereof” (priority 2011, dated 2020):
Converted amounts (≈) assume the structure as drawn. Where a SMILES comes first, the peptide text is derived from it. Where no end group is shown, it is not given here. [ ]: non-standard residue; d: D form. Bip = N[C@@H](Cc1ccc(-c2ccccc2)cc1)C(=O)O

Key:
Bacillus subtilis 168 = type: cell-based
Method: (§1) The bacterial strains used in the study are Bacillus subtilis 168, methicillin-resistant Staphylococcus aureus USA300 LAC (Gram-positive), Escherichia coli K12, and Pseudomonas aeruginosa PAO1 (Gram negative). The antibacterial activities of the peptides were determined using the standard broth microdilution method (Wang et al. (2005) J. Biol. Chem., 280:5803-5811). In brief, the bacterial culture (90 μL) was treated with a series of peptide solutions (10 μL), each with two-fold dilution. After overnight incubation at 37° C., the microplate was read on a ChroMate® 4300 Microplate Reader at 630 nm (GMI, Ramsey, Minn.).
(§2) For the initial screen, antimicrobial activities of these peptides against S. aureus and E. coli were evaluated using the standard broth microdilution protocol (Wang, G. (2008) J. Biol. Chem., 283:32637-43). […] Subsequently, the in vitro activity of these six peptides was evaluated against Bacillus subtilis and Pseudomonas aeruginosa (Table 6). […] While maculatin 1.3 is active against two Gram-positive but not two Gram-negative bacterial strains, DASamP1 is species-specific since it active only against S. aureus. The finding that ascaphin-8, […], and piscidin 1 are wide-spectrum AMPs agrees with the literature (Apponyi et al. (2004) Peptides 25:1035-1054; Conlon et al. (2004) Biochem. Biophys. Res. Commun., 320:170-175; Silphaduang et al. (2001) Nature 414:268-269; Souza et al. (2005) J. Immunol., 186:6585-6596). For lycotoxin I, it was previously found to active against Gram-negative E. coli and yeast (Yan et al. (1998) J. Biol. Chem., 273:2059-2066).

[1] = system: Pseudomonas aeruginosa PAO1; type: cell-based
Method: as §1, §2
(§3) The antibacterial activities of the peptides were determined using the standard broth microdilution method (Mishra et al. (2012) J. Am. Chem. Soc., 134:12426-12429; Wang et al. (2005) Biol. Chem., 280:5803-5811). Briefly, the bacterial culture was treated with a series of peptide solutions, each with two-fold dilution. After overnight incubation at 37° C., the microplate was read on a ChroMate® 4300 Microplate Reader at 630 nm (GMI, Ramsey, Minn.).

chymotrypsin = chymotrypsin (Bos taurus, UniProt P00766); assay: Peptide stability to chymotrypsin by SDS-PAGE; type: in vitro ADME, bovine; settings: for time the peptide stays intact in the presence of chymotrypsin: 12.5 μM chymotrypsin, peptide/protein 40:1, PBS pH 8, 37° C.
Method: A solution (100 μl) of the peptide and 12.5 μM chymotrypsin (peptide/protein molar ratio, 40:1) in 10 mM PBS buffer (pH 8) was incubated at 37° C. Aliquots (10 μl) of the reaction solutions were taken at 0, 2, 4, and 22 hours and immediately mixed with 20 μl of 2×SDS loading buffer to stop the reaction. For the gel analysis, 10 μl of each sample was loaded to the well of a 5% stacking/18% resolving tricine gel. The samples in the lanes are: 1, protein marker; 2, temporin-PTa L-form at 0 hour; 3, 2 hours; 4, 4 hours; 5, 22 hours; 6, temporin-PTa D-form at 0 hour; 7, 2 hours; 8, 4 hours; 9, 22 hours. In the gel, the bands for the peptide and chymotrypsin were indicated with large and small arrows, respectively. Note that the peptide bands were not detected in lanes 3-5 due to protease cleavage but remained essentially constant in lanes 7-9.
Peptide stability was evaluated using standard SDS-PAGE (described in FIG. 5).
(§4) Peptide stability was evaluated based on a published protocol (Mishra et al. (2012) J. Am. Chem. Soc., 134:12426-12429) with one modification. Aliquots (10 μL) of the reaction solutions (peptide/protease molar ratio, 40:1) in 10 mM PBS buffer (pH 8) at 37° C. were taken at 0, 6, and 24 hours and immediately mixed with 10 μL of 2×SDS loading buffer followed by boiling for 5 minutes to stop the reaction. Samples were analyzed using 5% stacking/18% resolving tricine gel.

human erythrocytes = system: human erythrocytes
Method: Peptide hemolysis was assayed using an established protocol (Malmsten et al. (2011) PLoS One 6:e16400). In brief, fresh blood, obtained from the UNMC Blood Bank, was washed three times with PBS buffer and made into a 5% solution. To 90 μL of this solution, 10 μL of a peptide solution was added and incubated at 37° C. for one hour. After centrifugation at 13,000 rpm, aliquots of the supernatant were transferred to a fresh 96 well microplate. The absorbance of the solutions was measured at 545 nm to detect the amount of hemoglobin released. The percent lysis was calculated by assuming 100% release when treated with 2% Triton X-100 and no lysis (0%) when treated with PBS buffer. HL50 was the peptide concentration that caused 50% lysis of human erythrocytes. The cell selectivity (CS) indexes were calculated as the ratio of HL50 to the MIC of the peptide against S. aureus USA300.
The hemolytic effects of the six peptides were also compared on human red blood cells (hRBC) using an established protocol (Malmsten et al. (2011) PLoS One 6:e16400). […] A high TI indicates good cell selectivity.
Peptide hemolysis was assayed using an established protocol (Menousek et al. (2012) Int. J. Antimicrob. Agents 39:402-406; Malmsten et al. (2011) PLoS One 6:e16400). Briefly, blood cells were washed three times with phosphate-buffered saline (PBS) and were diluted to a 5% solution. Following peptide treatment, incubation at 37° C. for 1 hour and centrifugation at 13,000 rpm, aliquots of the supernatant were transferred to a fresh 96-well microplate. To assess peptide cytotoxicity, the amount of hemoglobin released was measured at 545 nm. Percent lysis was calculated by assuming 100% release when human blood cells were treated with 2% Triton X-100 and 0% release when they were incubated with PBS buffer.

Escherichia coli K12 = settings: Table 8
fungal protease K = fungal protease K (Parengyodontium album, UniProt P06873); assay: Peptide stability to fungal protease K by SDS-PAGE; type: in vitro ADME; settings: peptide/protease 40:1, PBS pH 8, 37° C.
Sequence of fungal protease K (P06873 106-384): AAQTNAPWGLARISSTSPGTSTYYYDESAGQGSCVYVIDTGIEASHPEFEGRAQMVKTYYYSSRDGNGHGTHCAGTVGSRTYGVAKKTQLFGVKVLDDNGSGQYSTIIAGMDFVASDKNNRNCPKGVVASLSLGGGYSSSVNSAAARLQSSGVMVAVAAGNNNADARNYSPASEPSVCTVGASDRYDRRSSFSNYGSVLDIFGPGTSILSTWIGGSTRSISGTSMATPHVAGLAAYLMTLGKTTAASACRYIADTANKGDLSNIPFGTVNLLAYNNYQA
Method: (§5) FIG. 10 provides a stability comparison of synthetic 17BIPHE2 with GF-17 in the presence of bovine chymotrypsin, porcine trypsin, S. aureus protease V8, and fungal protease K. Two samples were analyzed in this gel for each protease: 0 and 6 hours for GF-17 and 0 and 24 hours for 17BIPHE2.
as §4

ESKAPE pathogens = type: cell-based
Method: as §3
A rational design was conducted on the basis of the 3D structure of GF-17d3. […] The noncoherent packing of the GF-17d3 side chains caused a hydrophobic defect in the structure (FIGS. 8C and 8D, arrow), leading to reduced hydrophobicity. Accordingly, it was hypothesized that the antimicrobial activity of this peptide 17F2 (sequence GX1KRLVQRLKDX2LRNLV (SEQ ID NO: 58), Table 9) could be enhanced by filling in the hydrophobic cavity (FIG. 8D, arrow) with a larger hydrophobic side chain. The antimicrobial activities of these peptide analogues were evaluated using the standard microdilution assays (Mishra et al. (2012) J. Am. Chem. Soc., 134:12426-12429), and the minimal inhibitory concentrations (MIC) against a panel of the ESKAPE pathogens are provided in Table 10. […] To compare the two sites, these two substitutions at positions X1 and X2 were swapped to obtain 17Naph-mF. […] In addition, biphenylalanines were incorporated at position X1 alone or at both X1 and X2 of the 17F2 template. […] The killing abilities of these peptides are essentially proportional to their MIC values as well as retention times (a measure of hydrophobicity) on a reverse-phase HPLC column (Mishra et al. (2012) J. Am. Chem. Soc., 134:12426-12429).

E. faecium ATCC51559 = type: cell-based, Enterococcus faecium; settings: ATCC51559
Method: as §3

E. cloacae B2366-12 = type: cell-based; settings: B2366-12
Method: as §3

A. baumannii B2367-12 = type: cell-based, Acinetobacter baumanii
Method: as §3

[2] = system: methicillin-resistant Staphylococcus aureus USA300 LAC
Method: This was done by modifying the standard microdilution antimicrobial assays (Wang, G. (2008) J. Biol. Chem., 283:32637-32643). Specifically, the bacterial wells with a high peptide concentration (e.g. 100 μM) are duplicated (e.g., two for antimicrobial assays and two for protease stability assays). As an illustration, chymotrypsin was applied to the duplicated wells at a peptide:protease molar ratio of 25:1.

S. aureus V8 protease = S. aureus V8 protease (Staphylococcus aureus, UniProt P0C1U8); type: in vitro ADME; settings: peptide/protease 40:1, PBS pH 8, 37° C.
Sequence of S. aureus V8 protease (P0C1U8 69-336): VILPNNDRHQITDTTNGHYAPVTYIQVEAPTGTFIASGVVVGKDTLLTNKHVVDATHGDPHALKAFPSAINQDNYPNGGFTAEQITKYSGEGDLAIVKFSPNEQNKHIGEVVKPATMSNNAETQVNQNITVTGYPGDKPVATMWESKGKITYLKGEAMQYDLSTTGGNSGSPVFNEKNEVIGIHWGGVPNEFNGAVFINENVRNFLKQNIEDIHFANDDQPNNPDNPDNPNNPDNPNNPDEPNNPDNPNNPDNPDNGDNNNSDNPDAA
Method: as §5, §4

[3] = Peptide solubility (observation); type: physicochemical

LLGSLLKLLPKLL-NH2 [Temporin-PTa8L]
MIC (μM) BS (Bacillus subtilis 168): 3.12 µM
MIC (μM) PA [1]: >100 µM

CC[C@H](C)[C@H](NC(=O)[C@H](CCCCN)NC(=O)[C@@H]1CCCN1C(=O)[C@@H](NC(=O)[C@H](CC(C)C)NC(=O)[C@H](CCCCN)NC(=O)[C@H](CC(C)C)NC(=O)[C@@H](NC(=O)[C@H](CO)NC(=O)CNC(=O)[C@H](Cc1ccccc1)NC(=O)[C@@H](N)Cc1ccccc1)C(C)C)[C@@H](C)CC)C(=O)N[C@@H](CC(C)C)C(N)=O [Temporin-PTa, reference compound]
time the peptide stays intact in the presence of chymotrypsin (chymotrypsin): ≤ 2 h

CC[C@@H](C)[C@@H](NC(=O)[C@@H](CCCCN)NC(=O)[C@H]1CCCN1C(=O)[C@H](NC(=O)[C@@H](CC(C)C)NC(=O)[C@@H](CCCCN)NC(=O)[C@@H](CC(C)C)NC(=O)[C@H](NC(=O)[C@@H](CO)NC(=O)CNC(=O)[C@@H](Cc1ccccc1)NC(=O)[C@H](N)Cc1ccccc1)C(C)C)[C@H](C)CC)C(=O)N[C@H](CC(C)C)C(N)=O [Temporin-PTa (D-form)]
MIC (μM) BS (Bacillus subtilis 168): 6.25 µM (≈ 9.21 µg/mL)
MIC (μM) PA [1]: >100 µM
time the peptide stays intact in the presence of chymotrypsin (chymotrypsin): at least 22 hours

FFGSLLKLLPKLL-NH2 [Temporin-PTa6L]
MIC (μM) BS (Bacillus subtilis 168): 3.12 µM

CC(C)C[C@H](NC(=O)[C@H](CC(N)=O)NC(=O)[C@H](CCCNC(=N)N)NC(=O)[C@@H](CC(C)C)NC(=O)[C@H](Cc1ccc(-c2ccccc2)cc1)NC(=O)[C@H](CC(=O)O)NC(=O)[C@H](CCCCN)NC(=O)[C@@H](CC(C)C)NC(=O)[C@H](CCCNC(=N)N)NC(=O)[C@H](CCC(N)=O)NC(=O)[C@@H](NC(=O)[C@@H](CC(C)C)NC(=O)[C@H](CCCNC(=N)N)NC(=O)[C@H](CCCCN)NC(=O)[C@H](Cc1ccc(-c2ccccc2)cc1)NC(=O)CN)C(C)C)C(=O)N[C@H](C(N)=O)C(C)C [D128A, GX1KRLVQRLKDX2LRNLV-amide] (H-G[Bip]KR[dL]VQR[dL]KD[Bip][dL]RNLV-NH2)
HL50 (μM), peptide concentration at which 50% human red blood cells were lysed (human erythrocytes; Table 8): 150 µM
HL50 (μM), peptide concentration that causes 50% lysis of human erythrocytes (human erythrocytes; Table 10): 225 µM
E. coli K12 MIC (Escherichia coli K12): 2.5 µM
MIC (μM) PA [1]: 6.2 µM (≈ 14 µg/mL)
time stable in the presence of fungal protease K (fungal protease K): at least 24 hours
MIC against all of the ESKAPE pathogens (ESKAPE pathogens): 3.1 to 6.2 µM
MIC (μM) EF (E. faecium ATCC51559): 3.1 µM (≈ 6.99 µg/mL)
MIC (μM) EC (E. cloacae B2366-12): 3.1 µM (≈ 6.99 µg/mL)
MIC (μM) AB (A. baumannii B2367-12): 3.1 µM (≈ 6.99 µg/mL)
level of intact peptide in the presence of chymotrypsin (chymotrypsin; during 4 hours): remained constant
MIC (μM) SA ([2]; S. aureus USA300 LAC, Table 10): 3.1 µM (≈ 6.99 µg/mL)
S. aureus USA 300 MIC ([2]; Table 8): 5 µM
time stable in the presence of S. aureus V8 protease (S. aureus V8 protease): at least 24 hours

GIIPIISIIGKII-NH2 (C-terminus assumed) [DFTamP1-pi]
solubility [3]: poorly soluble
